Experimental data: BindingDB's records for doi:10.7270/Q2ZC8184 (Nmmlsc, 2010)

What follows are compounds tested against Glutathione S-transferase class-mu 26 kDa isozyme (Schistosoma japonicum, UniProt P08515) (assay: GST–glutathione bead interaction interference profiling – biochemical, multiplex beads, flow cytometry, profiling panel (AID 1769)).
Glutathione S-transferase class-mu 26 kDa isozyme, sequence (P08515 2-218 limits assumed): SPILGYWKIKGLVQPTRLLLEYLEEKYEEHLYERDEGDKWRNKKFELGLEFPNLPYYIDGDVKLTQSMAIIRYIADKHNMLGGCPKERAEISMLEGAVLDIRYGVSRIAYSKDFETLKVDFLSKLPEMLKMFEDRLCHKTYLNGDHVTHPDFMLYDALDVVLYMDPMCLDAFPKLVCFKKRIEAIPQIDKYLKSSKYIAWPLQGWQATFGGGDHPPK

| Structure (SMILES) | EC50 [µM] |
| --- | --- |
| CCOC1=CC(=Cc2sc(=O)[nH]c2N)C=CC1=O | 2.47 |
| CC(N=Nc1ccc(S(N)(=O)=O)cc1[N+](=O)[O-])c1ccc2c(c1)OCO2 (stereo not drawn) | 1.4 |
| CCn1cc(C(=O)O)c(=O)c2cc(F)c(N=NCc3ccccc3)cc21 [1-Ethyl-6-fluoro-4-oxo-7-{N'-[1-phenyl-meth-(E)-ylidene]-hydrazino}-1,4-dihydro-quinoline-3-carboxylic acid] | 3.88 |
| CC(C)NC(=S)NN=C1C(=O)Nc2ccc([N+](=O)[O-])cc21 [1-[(5-nitro-2-oxidanylidene-indol-3-yl)amino]-3-propan-2-yl-thiourea] | 1.43 |
| NC(=S)NNC1=c2cc(Br)cc(Br)c2=NC1=O [1-[[5,7-bis(bromanyl)-2-oxidanylidene-indol-3-yl]amino]thiourea] | 69.1 |
| O=c1[nH]c(=O)c2nnc(N=NCc3ccc(O)cc3)nc2[nH]1 [3-[2-[(4-oxidanylidenecyclohexa-2,5-dien-1-ylidene)methyl]hydrazinyl]-5H-pyrimido[4,5-e][1,2,4]triazine-6,8-dione] | 3.79 |
| Cc1nc(N=NCc2ccc(O)cc2)c2cnn(-c3ccccc3)c2n1 [4-[[(6-methyl-1-phenyl-4-pyrazolo[3,4-d]pyrimidinyl)hydrazo]methylidene]-1-cyclohexa-2,5-dienone] | 3.58 |
| COC(=O)c1cc(NC(=O)c2cccc(Cl)c2)c(=O)oc1CC=Nc1cc(C)cc(C)c1 [5-[(3-chlorobenzoyl)amino]-2-[(E)-2-(3,5-dimethylanilino)vinyl]-6-keto-pyran-3-carboxylic acid methyl ester] | 0.567 |
| COc1ccc(-c2csc(-c3c(O)cn(C(C)C)c3N)n2)cc1OC [5-amino-4-[4-(3,4-dimethoxyphenyl)-1,3-thiazol-2-yl]-1-propan-2-yl-2H-pyrrol-3-one] | 87.3 |
| COc1ccc(N=CCc2nc(SC)nnc2C)cc1 [(4-methoxyphenyl)-[(E)-2-[6-methyl-3-(methylthio)-1,2,4-triazin-5-yl]vinyl]amine] | 2.76 |
| COc1cc(CN=Nc2nc(C)nc3c2cnn3-c2ccccc2)ccc1O [(4E)-2-methoxy-4-[[(6-methyl-1-phenyl-4-pyrazolo[3,4-d]pyrimidinyl)hydrazo]methylidene]-1-cyclohexa-2,5-dienone] | 0.638 |
| Cc1cc(N=NCc2ccc(O)cc2O)nc(-n2nc(C)cc2C)n1 [(4E)-4-[[2-[2-(3,5-dimethylpyrazol-1-yl)-6-methyl-pyrimidin-4-yl]hydrazinyl]methylidene]-3-oxidanyl-cyclohexa-2,5-dien-1-one] | 0.831 |
| CCN(c1ccc(NC=C2C(=O)N(Cc3ccc(OC)cc3)C(=O)c3ccccc32)cc1)C(C)C [(4E)-4-[[[4-[ethyl(propan-2-yl)amino]phenyl]amino]methylidene]-2-[(4-methoxyphenyl)methyl]isoquinoline-1,3-dione] | 0.249 |
| Cc1ccc(O)c(/N=C/C2=CC(Cc3ccccc3)C=C([N+](=O)[O-])C2=O)c1 (stereo not drawn) [(6E)-6-[[(5-methyl-2-oxidanyl-phenyl)amino]methylidene]-2-nitro-4-(phenylmethyl)cyclohexa-2,4-dien-1-one] | 8.29 |
| O=c1[nH]c(N=NCc2ccc(O)cc2)nc2ccccc12 [MLS000571412] | 7.68 |
| O=C(Cc1ccccc1)NCC(=O)N/N=C1\C(=O)N(Cc2ccc3c(c2)OCO3)c2ccccc21 [MLS000587449] | 12 |
| NC(=S)NNC1=c2cc(F)c(F)cc2=NC1=O [MLS000589334] | 15.6 |
| CCNC(=S)NN=C1C(=O)Nc2ccc([N+](=O)[O-])cc21 [MLS000773526] | 1.93 |
| Oc1ccc2ccccc2c1CN=Nc1nnc(-c2ncc[nH]2)c2ccccc12 [SMR000151639] | 1.95 |
| CCn1cc(C(=O)O)c(=O)c2cc(F)c(N=NCc3ccccc3[N+](=O)[O-])cc21 [SMR000171611] | 2.67 |
| CN1C(=O)/C(=C2/C(=O)Nc3ccccc32)NC1=S [SMR000198608] | 13.4 |
| CCOc1ccc2c(c1)C(=NN=C(N)N)C(=O)N2C [SMR000207554] | 25.6 |
| COc1cc(CN=Nc2ncnc3sc4c(c23)CCC4)ccc1O [SMR000242188] | 14.5 |
